# What was measured:
# Format in all cases: in vivo
# [1] = system: Italian ryegrass (Lolium multiflorum); test: Test B pre-/postemergence plant response; conditions: for Ryegrass, Italian plant response rating: 8 g ai/ha
# Outline: (§1)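 Seeds were sown and sprayed preemergence, while plants at 2 to 18 cm (1- to 4-leaf stage) got postemergence sprays. Compounds were formulated in a non-phytotoxic solvent mixture with surfactant. After 13 to 15 days in a greenhouse, injury was rated visually against untreated controls, 0 (no effect) to 100 (complete control).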
# [2] = system: Russian thistle (Salsola iberica); test: Test B pre-/postemergence plant response; conditions: Preemergence
# Outline: as §1
# [3] = system: bermudagrass (Cynodon dactylon); test: Test B pre-/postemergence plant response; conditions: for Bermudagrass plant response rating: 8 g ai/ha
# Outline: as §1
# [4] = system: cocklebur (Xanthium strumarium); test: Test B pre-/postemergence plant response; conditions: for Cocklebur plant response rating: 8 g ai/ha
# Outline: as §1
# [5] = system: eastern black (E.B.) nightshade (Solanum ptycanthum); test: Test B pre-/postemergence plant response; conditions: Preemergence
# Outline: as §1
# [6] = system: goosegrass (Eleusine indica); test: Test B pre-/postemergence plant response; conditions: for Goosegrass plant response rating: 8 g ai/ha
# Outline: as §1
# [7] = system: green foxtail (Setaria viridis); test: Test B pre-/postemergence plant response; conditions: for Foxtail, Green plant response rating: 8 g ai/ha
# Outline: as §1
# [8] = system: johnsongrass (Sorghum halepense); test: Test B pre-/postemergence plant response; conditions: for Johnsongrass plant response rating: 8 g ai/ha
# Outline: as §1
# [9] = system: large crabgrass (Digitaria sanguinalis); test: Test B pre-/postemergence plant response; conditions: for Crabgrass, Large plant response rating: 8 g ai/ha
# Outline: as §1
# [10] = system: morningglory (Ipomoea coccinea); test: Test B pre-/postemergence plant response; conditions: for Morningglory plant response rating: 8 g ai/ha
# Outline: as §1
# [11] = system: soybean (Glycine max); test: Test B pre-/postemergence plant response; conditions: for Soybean plant response rating: 8 g ai/ha
# Outline: as §1
# [12] = system: surinam grass (Brachiaria decumbens); test: Test B pre-/postemergence plant response; conditions: for Surinam Grass plant response rating: 8 g ai/ha
# Outline: as §1
# [13] = system: wheat (Triticum aestivum); test: Test B pre-/postemergence plant response; conditions: for Wheat plant response rating: 8 g ai/ha
# Outline: as §1
# [14] = system: chickweed (Stellaria media); test: Test B postemergence plant response; conditions: for Plant response rating, Chickweed: Postemergence
# Outline: (§2)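 Scoring: 0 means no effect and 100 complete control, judged by eye against controls after 13–15 days under greenhouse conditions following postemergence application at 2–18 cm plant height.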
# [15] = system: windgrass (Apera spica-venti); test: Test B postemergence plant response; conditions: for Plant response rating, Windgrass: Postemergence
# Outline: as §2
# [16] = system: winter barley (Hordeum vulgare); test: Test B postemergence plant response; conditions: for Plant response rating, Barley: Postemergence, scale 0 to 100, 0 no effect, 100 complete control
# Outline: as §2
# [17] = Postemergence, 16 g ai/ha, scale 0 to 100
# [18] = Postemergence, 31 g ai/ha, scale 0 to 100, 0 no effect, 100 complete control
# [19] = Postemergence, 62 g ai/ha, scale 0 to 100, 0 no effect, 100 complete control
# [20] = Preemergence, 16 g ai/ha, scale 0 to 100 (0 no effect, 100 complete control)
# [21] = Preemergence, 31 g ai/ha, 0 to 100 scale, 0 no effect, 100 complete control
# [22] = Preemergence, 62 g ai/ha, scale 0 to 100
# [23] = 16 g ai/ha, scale 0 to 100 (0 no effect, 100 complete control)
# [24] = 31 g ai/ha, 0 to 100 scale, 0 no effect, 100 complete control
# [25] = 8 g ai/ha, postemergence, 0-100 scale
# [26] = 62 g ai/ha, scale 0 to 100, 0 no effect, 100 complete control
smiles,measurement,setting,value
Cc1cc(-c2ccc(Cl)cc2)nn1-c1c(OC(=O)CC(C)C)cnn(C)c1=O [Compound 37],"Ryegrass, Italian plant response rating","[1]; postemergence, 0-100 scale",60
same,"Plant response rating, Ryegrass, Italian",[1]; [17],90
same,"Plant response rating, Ryegrass, Italian",[1]; [18],98
same,"Plant response rating, Ryegrass, Italian",[1]; [19],100
same,"Plant response rating, Ryegrass, Italian",[1]; [20],90
same,"Plant response rating, Ryegrass, Italian",[1]; [21],98
same,"Plant response rating, Ryegrass, Italian",[1]; [22],100
same,"Ryegrass, Italian plant response rating","[1]; Preemergence, scale 0 to 100",45
same,"Plant response rating, Russian Thistle",[2]; [23],0
same,"Plant response rating, Russian Thistle",[2]; [24],0
same,"Plant response rating, Russian Thistle","[2]; 62 g ai/ha, scale 0 to 100",90
same,Russian Thistle plant response rating,"[2]; 8 g ai/ha, scale 0 to 100",0
same,Bermudagrass plant response rating,"[3]; postemergence, 0-100 scale",80
same,"Plant response rating, Bermudagrass",[3]; [17],85
same,"Plant response rating, Bermudagrass",[3]; [18],100
same,"Plant response rating, Bermudagrass",[3]; [19],100
same,Bermudagrass plant response rating,"[3]; Preemergence, scale 0 to 100 (0 no effect, 100 complete control)",90
same,"Plant response rating, Bermudagrass",[3]; [20],90
same,"Plant response rating, Bermudagrass",[3]; [21],100
same,"Plant response rating, Bermudagrass",[3]; [22],100
same,Cocklebur plant response rating,"[4]; postemergence, 0-100 scale",0
same,"Plant response rating, Cocklebur",[4]; [17],0
same,"Plant response rating, Cocklebur",[4]; [18],0
same,"Plant response rating, Cocklebur",[4]; [19],0
same,"Plant response rating, Cocklebur",[4]; [20],0
same,"Plant response rating, Cocklebur",[4]; [21],0
same,"Plant response rating, Cocklebur",[4]; [22],0
same,Cocklebur plant response rating,"[4]; Preemergence, scale 0 to 100",0
same,"Plant response rating, Nightshade, E. B.",[5]; [23],0
same,"Plant response rating, Nightshade, E. B.",[5]; [24],0
same,"Plant response rating, Nightshade, E. B.","[5]; 62 g ai/ha, scale 0 to 100",0
same,"Nightshade, E. B. plant response rating","[5]; 8 g ai/ha, scale 0 to 100",0
same,Goosegrass plant response rating,"[6]; postemergence, 0-100 scale",100
same,"Plant response rating, Goosegrass",[6]; [17],100
same,"Plant response rating, Goosegrass",[6]; [18],100
same,"Plant response rating, Goosegrass",[6]; [19],100
same,"Plant response rating, Goosegrass",[6]; [20],90
same,"Plant response rating, Goosegrass",[6]; [21],98
same,"Plant response rating, Goosegrass",[6]; [22],100
same,Goosegrass plant response rating,"[6]; Preemergence, scale 0 to 100",75
same,"Foxtail, Green plant response rating","[7]; postemergence, 0-100 scale",60
same,"Plant response rating, Foxtail, Green",[7]; [17],75
same,"Plant response rating, Foxtail, Green",[7]; [18],80
same,"Plant response rating, Foxtail, Green",[7]; [19],85
same,"Plant response rating, Foxtail, Green",[7]; [20],98
same,"Plant response rating, Foxtail, Green",[7]; [21],100
same,"Plant response rating, Foxtail, Green",[7]; [22],100
same,"Foxtail, Green plant response rating","[7]; Preemergence, scale 0 to 100",40
same,Johnsongrass plant response rating,"[8]; postemergence, 0-100 scale",0
same,"Plant response rating, Johnsongrass",[8]; [17],55
same,"Plant response rating, Johnsongrass",[8]; [18],95
same,"Plant response rating, Johnsongrass",[8]; [19],100
same,"Plant response rating, Johnsongrass",[8]; [20],50
same,"Plant response rating, Johnsongrass",[8]; [21],80
same,"Plant response rating, Johnsongrass",[8]; [22],80
same,Johnsongrass plant response rating,"[8]; Preemergence, scale 0 to 100",50
same,"Crabgrass, Large plant response rating","[9]; postemergence, 0-100 scale",70
same,"Plant response rating, Crabgrass, Large",[9]; [17],70
same,"Plant response rating, Crabgrass, Large",[9]; [18],85
same,"Plant response rating, Crabgrass, Large",[9]; [19],100
same,"Plant response rating, Crabgrass, Large",[9]; [20],98
same,"Plant response rating, Crabgrass, Large",[9]; [21],100
same,"Plant response rating, Crabgrass, Large",[9]; [22],100
same,"Crabgrass, Large plant response rating","[9]; Preemergence, scale 0 to 100",70
same,Morningglory plant response rating,"[10]; postemergence, 0-100 scale",0
same,"Plant response rating, Morningglory",[10]; [17],0
same,"Plant response rating, Morningglory",[10]; [18],0
same,"Plant response rating, Morningglory",[10]; [19],0
same,"Plant response rating, Morningglory",[10]; [20],0
same,"Plant response rating, Morningglory",[10]; [21],0
same,"Plant response rating, Morningglory",[10]; [22],0
same,Morningglory plant response rating,"[10]; Preemergence, scale 0 to 100",0
same,Soybean plant response rating,"[11]; postemergence, 0-100 scale",0
same,"Plant response rating, Soybean",[11]; [17],0
same,"Plant response rating, Soybean",[11]; [19],0
same,"Plant response rating, Soybean",[11]; [20],0
same,"Plant response rating, Soybean",[11]; [21],0
same,"Plant response rating, Soybean",[11]; [22],0
same,Soybean plant response rating,"[11]; Preemergence, scale 0 to 100",0
same,Surinam Grass plant response rating,"[12]; postemergence, 0-100 scale",95
same,"Plant response rating, Surinam Grass",[12]; [17],100
same,"Plant response rating, Surinam Grass",[12]; [19],100
same,"Plant response rating, Surinam Grass",[12]; [20],85
same,"Plant response rating, Surinam Grass",[12]; [21],98
same,"Plant response rating, Surinam Grass",[12]; [22],100
same,Surinam Grass plant response rating,"[12]; Preemergence, scale 0 to 100",65
same,Wheat plant response rating,"[13]; postemergence, 0-100 scale",15
same,"Plant response rating, Wheat",[13]; [17],50
same,"Plant response rating, Wheat",[13]; [19],95
same,"Plant response rating, Wheat",[13]; [20],0
same,"Plant response rating, Wheat",[13]; [21],5
same,"Plant response rating, Wheat",[13]; [22],70
same,Wheat plant response rating,"[13]; Preemergence, scale 0 to 100",0
same,Chickweed plant response rating,[14]; [25],0
same,"Plant response rating, Chickweed","[14]; 16 g ai/ha, scale 0 to 100",0
same,"Plant response rating, Chickweed","[14]; 31 g ai/ha, scale 0 to 100, 0 no effect, 100 complete control",0
same,"Plant response rating, Chickweed",[14]; [26],0
same,Windgrass plant response rating,[15]; [25],10
same,"Plant response rating, Windgrass","[15]; 16 g ai/ha, scale 0 to 100",60
same,"Plant response rating, Windgrass",[15]; [26],85
same,Barley plant response rating,[16]; [25],0
same,"Plant response rating, Barley",[16]; 16 g ai/ha,0
same,"Plant response rating, Barley",[16]; 31 g ai/ha,5
same,"Plant response rating, Barley",[16]; 62 g ai/ha,15
